Publication PMC10600247, “Impact of C- and N-terminal protection on the stability, metal chelation and antimicrobial properties of calcitermin” (Scientific Reports, 2023)
Residues, ends and D or L forms follow the SMILES beside them.

Tests used:
[1] = Text: Stability constants for proton and metal complexes were obtained from pH-metric titration curves registered at T = 298 K and ionic strength 0.1 M (KCl). The potentiometric apparatus was previously described. Solutions were titrated with 0.1 M carbonate-free KOH. The electrode was daily calibrated for hydrogen ion concentration by titrating HNO3 with the standard base solution, under the same experimental conditions as above. The asymmetry potential and the slope of the electrode couple were computed by means of […][41] and Glee[42] programs. The purities and exact concentrations of the ligand solutions were determined by the Gran method. The […][44] program was employed for the overall formation constant (β) calculations, referred to the following equilibrium equation: pM + qL + rH ⇆ MpLqHr (charges omitted; p is 0 in the case of ligand protonation; r can be negative). The computed standard deviations (referring to random errors only) were given by the program itself and are shown in parentheses as uncertainties on the last significant figure. Hydrolysis constants for metal ions were taken from the literature[45],[46]. The distribution and competition diagrams were computed using the HYSS program.
1. Wild-type calcitermin: thermodynamic data
Wild-type calcitermin (WT) has been previously investigated by our research group in aqueous solutions and ionic medium NaClO4.1 For the sake of comparison, potentiometric studies of WT and its copper and zinc complexes have been performed in a different ionic medium (KCl 0.1 M). The study of the speciation under different experimental conditions, changing ionic medium and metal-ligand ratio, is essential to comprehensively describe the thermodynamics of calcitermin, which is usually found in multicomponent media like biological fluids.
Table S1. Equilibrium constants for protonation of WT and its Cu2+ and Zn2+ complex formation at T = 298 K and I = 0.1 M (KCl). Values in parentheses are standard deviations on the last significant figure.

S. aureus (ATCC 25293) = assay: In vitro anti-S. aureus CFU assay; format: cell-based, Staphylococcus aureus; settings: 3 h, pH 5.4; for mean CFU number ± S.D.: per 0.1 mL
Description: All microbes were grown at 37 °C in Tryptic Soy Broth (TSB; Biolife, Milan, Italy) or Tryptic Soy Agar plates (TSA, Biolife, Milan, Italy). Peptides were tested at a final concentration C = 0.128, 0.064, 0.032 mg/mL, in the presence or absence of ZnCl2 or CuCl2, at a M:L molar ratio 0.9:1. Briefly, all the microbes were expanded in TSB at 37 °C under agitation for 12 h and then sub-cultured by 1:10 dilution in TSB under the same conditions until reaching OD600nm = 0.3–0.4, as measured by spectrophotometric reading using a GENESYS 10S UV–Vis spectrophotometer (Thermo Scientific, Milan, Italy), corresponding to 0.9–1.2 × 10^7 colony forming units (CFU) per mL, 1.5–2 × 10^8 CFU/mL and 2.4–3.2 × 10^8 CFU/mL, for C. albicans, S. aureus and E. coli respectively. The cultures were then centrifuged at 4500 rpm for 10 min in a SL 8 centrifuge (TX-150 Rotor) (Thermo Scientific, Milan, Italy), and the cellular pellets were washed with PBS pH 5.4. Pelletized cultures were then suspended in 10 mL of PBS pH 5.4, then the suspensions were diluted to a final concentration of 10^4 CFU/mL. Aliquots of 100 µl (corresponding to 10^3 CFU) were seeded in each well of a 96-wells plate. 3 µl of TSB at pH 5.4 were added to each well to obtain a final 1.5% TSB concentration in the culture medium. Peptides were serially diluted in PBS pH 5.4 to C = 0.257, 0.128, and 0.064 mg/mL. ZnCl2 and CuCl2 solutions were added where requested to obtain a M:L ratio 0.9:1. 100 µl of the prepared peptides ± ZnCl2/CuCl2 solutions were then added to each well, obtaining the final 0.128, 0.064 and 0.032 mg/mL peptide concentrations in a total 0.2 mL volume. PBS alone and PBS + ZnCl2/CuCl2 solutions were included as controls. The plates were incubated at 37 °C on a platform rocker with slow stirring for 3 and 24 h. At the end of the incubation times, 100 µl aliquots were taken from each sample and diluted in PBS pH 5.4 to be seeded on TSA plates. Specifically, aliquots were diluted 1:10 at 3 h, and 1:200, 1:100,000 and 1:10 at 24 h, for C. albicans, E. coli, and S. aureus respectively. After incubation for 24 h at 37 °C, grown CFUs were enumerated. Samples were assayed in triplicate in two independent experiments. Student’s t-test was used for the evaluation of significance in biological tests; a p value ≤ 0.05 was considered significant.

[2] = T = 298 K, I = 0.1 M (KCl), charges omitted
[3] = peptide 0.032 mg/mL + CuCl2 (0.9:1)
[4] = peptide 0.032 mg/mL + ZnCl2 (0.9:1)
[5] = peptide 0.064 mg/mL + CuCl2 (0.9:1)
[6] = peptide 0.064 mg/mL + ZnCl2 (0.9:1)
[7] = peptide 0.128 mg/mL + CuCl2 (0.9:1)
[8] = peptide 0.128 mg/mL + ZnCl2 (0.9:1)

| SMILES | pKa [CuH2L] [1] | pKa [CuHL] [1] | pKa [CuL] [1] | pKa [ZnHL] [1] | logβ [CuH2L] [1, 2] | logβ [CuH-1L] [1, 2] | logβ [CuHL] [1, 2] | logβ [CuL] [1, 2] | logβ [ZnHL] [1, 2] | logβ [ZnL] [1, 2] | CFU decrease/increase with respect to untreated controls (S. aureus (ATCC 25293); [3]) | mean CFU number ± S.D. (S. aureus (ATCC 25293); [3]) | CFU decrease/increase with respect to untreated controls (S. aureus (ATCC 25293); [4]) | mean CFU number ± S.D. (S. aureus (ATCC 25293); [4]) | CFU decrease/increase with respect to untreated controls (S. aureus (ATCC 25293); [5]) | mean CFU number ± S.D. (S. aureus (ATCC 25293); [5]) | CFU decrease/increase with respect to untreated controls (S. aureus (ATCC 25293); [6]) | mean CFU number ± S.D. (S. aureus (ATCC 25293); [6]) | mean CFU number ± S.D. (S. aureus (ATCC 25293); [7]) | mean CFU number ± S.D. (S. aureus (ATCC 25293); [8]) | also measured |
| --- | --- | --- | --- | --- | --- | --- | --- | --- | --- | --- | --- | --- | --- | --- | --- | --- | --- | --- | --- | --- | --- |
| CC[C@H](C)[C@H](NC(=O)[C@H](C)NC(=O)[C@@H](NC(C)=O)C(C)C)C(=O)N[C@@H](C)C(=O)N[C@@H](CC(C)C)C(=O)N[C@@H](CCCCN)C(=O)N[C@@H](C)C(=O)N[C@@H](C)C(=O)N[C@@H](Cc1c[nH]cn1)C(=O)N[C@@H](Cc1ccc(O)cc1)C(=O)N[C@@H](Cc1c[nH]cn1)C(=O)N[C@H](C(=O)N[C@@H](Cc1c[nH]cn1)C(=O)N[C@@H](CCCCN)C(=O)N[C@@H](CCC(=O)O)C(=O)O)[C@@H](C)O [L1, Ac-VAIALKAAHYHTHKE] (Ac-VAIALKAAHYHTHKE-OH) | 4.40 | 5.38 | 6.59 | 5.80 | 18.21(3) | 1.84(3) | 13.81(2) | 8.43(2) | 11.00(5) | 5.21(2) | +20% | 193 ± 54 CFU | +14% | 183 ± 24 CFU | +37% | 221 ± 66 CFU | +19% | 191 ± 6 CFU | 166 ± 35 CFU | 87 ± 8 CFU | pKa [CuH-1L] [1]: 6.88; pKa [ZnL] [1]: 7.33; CFU decrease/increase with respect to untreated controls (S. aureus (ATCC 25293); [7]): +3%; CFU decrease/increase with respect to untreated controls (S. aureus (ATCC 25293); peptide alone 0.032 mg/mL): +34%; mean CFU number ± S.D. (S. aureus (ATCC 25293); peptide alone 0.032 mg/mL): 215 ± 68 CFU; CFU decrease/increase with respect to untreated controls (S. aureus (ATCC 25293); peptide alone 0.064 mg/mL): -4%; mean CFU number ± S.D. (S. aureus (ATCC 25293); peptide alone 0.064 mg/mL): 155 ± 31 CFU; CFU decrease/increase with respect to untreated controls (S. aureus (ATCC 25293); peptide alone 0.128 mg/mL): +31%; mean CFU number ± S.D. (S. aureus (ATCC 25293); peptide alone 0.128 mg/mL): 211 ± 49 CFU |
| CC[C@H](C)[C@H](NC(=O)[C@H](C)NC(=O)[C@@H](N)C(C)C)C(=O)N[C@@H](C)C(=O)N[C@@H](CC(C)C)C(=O)N[C@@H](CCCCN)C(=O)N[C@@H](C)C(=O)N[C@@H](C)C(=O)N[C@@H](Cc1c[nH]cn1)C(=O)N[C@@H](Cc1ccc(O)cc1)C(=O)N[C@@H](Cc1c[nH]cn1)C(=O)N[C@H](C(=O)N[C@@H](Cc1c[nH]cn1)C(=O)N[C@@H](CCCCN)C(=O)N[C@@H](CCC(=O)O)C(N)=O)[C@@H](C)O [L3, VAIALKAAHYHTHKE-NH2] (H-VAIALKAAHYHTHKE-NH2) | 7.75 | 9.53 | 10.01 | 9.47 | 33.11(2) | 5.82(4) | 25.36(3) | 15.83(5) | 19.40(5) | 9.94(4) | +6% | 187 ± 13 CFU | -6% | 167 ± 22 CFU | -2% | 173 ± 69 CFU | -50% | 88 ± 18 CFU | 94 ± 2 CFU | 48 ± 8 CFU | pKa [CuH3L] [1]: 6.90; pKa [CuH4L] [1]: 6.21; pKa [CuH5L] [1]: 5.16; pKa [ZnH2L] [1]: 8.65; pKa [ZnH3L] [1]: 7.69; pKa [ZnH4L] [1]: 7.32; pKa [ZnH5L] [1]: 5.6; logβ [CuH3L] [1, 2]: 40.00(3); logβ [CuH4L] [1, 2]: 46.21(2); logβ [CuH5L] [1, 2]: 51.38(2); logβ [ZnH2L] [1, 2]: 28.06(4); logβ [ZnH3L] [1, 2]: 35.75(6); logβ [ZnH4L] [1, 2]: 43.07(3); logβ [ZnH5L] [1, 2]: 48.7(1); CFU decrease/increase with respect to untreated controls (S. aureus (ATCC 25293); peptide alone 0.032 mg/mL): -28%; mean CFU number ± S.D. (S. aureus (ATCC 25293); peptide alone 0.032 mg/mL): 127 ± 64 CFU; mean CFU number ± S.D. (S. aureus (ATCC 25293); peptide alone 0.064 mg/mL): 101 ± 30 CFU; mean CFU number ± S.D. (S. aureus (ATCC 25293); peptide alone 0.128 mg/mL): 91 ± 12 CFU |
| CC[C@H](C)[C@H](NC(=O)[C@H](C)NC(=O)[C@@H](NC(C)=O)C(C)C)C(=O)N[C@@H](C)C(=O)N[C@@H](CC(C)C)C(=O)N[C@@H](CCCCN)C(=O)N[C@@H](C)C(=O)N[C@@H](C)C(=O)N[C@@H](Cc1c[nH]cn1)C(=O)N[C@@H](Cc1ccc(O)cc1)C(=O)N[C@@H](Cc1c[nH]cn1)C(=O)N[C@H](C(=O)N[C@@H](Cc1c[nH]cn1)C(=O)N[C@@H](CCCCN)C(=O)N[C@@H](CCC(=O)O)C(N)=O)[C@@H](C)O [L2, Ac-VAIALKAAHYHTHKE-NH2] (Ac-VAIALKAAHYHTHKE-NH2) | 5.49 | 6.30 | 6.70 | 7.63 | 23.06(4) | 4.57(6) | 17.57(5) | 11.27(7) | 14.15(4) | 6.52(5) | -17% | 129± 41 CFU | 0% | 177 ± 11 CFU | -18% | 127 ± 30 CFU | -17% | 147 ± 16 CFU | 194 ± 4 CFU | 82 ± 16 CFU | pKa [CuH-1L] [1]: 9.44; pKa [CuH-2L] [1]: 9.91; pKa [ZnH2L] [1]: 6.14; pKa [ZnH-1L] [1]: 9.44; pKa [ZnL] [1]: 8.93; logβ [ZnH2L] [1, 2]: 20.29(6); CFU decrease/increase with respect to untreated controls (S. aureus (ATCC 25293); [7]): +6%; CFU decrease/increase with respect to untreated controls (S. aureus (ATCC 25293); peptide alone 0.032 mg/mL): -12%; mean CFU number ± S.D. (S. aureus (ATCC 25293); peptide alone 0.032 mg/mL): 157 ± 35 CFU; CFU decrease/increase with respect to untreated controls (S. aureus (ATCC 25293); peptide alone 0.064 mg/mL): +14%; mean CFU number ± S.D. (S. aureus (ATCC 25293); peptide alone 0.064 mg/mL): 201 ± 40 CFU; CFU decrease/increase with respect to untreated controls (S. aureus (ATCC 25293); peptide alone 0.128 mg/mL): +21%; mean CFU number ± S.D. (S. aureus (ATCC 25293); peptide alone 0.128 mg/mL): 213 ± 23 CFU |
